From patent publication US11672799B2, “1,4-disubstituted pyridazine quinolne analogs there of and methods for treating SMN-deficiency-related conditions” (Novartis AG, priority 2013, dated 2023)

Test system: SMN protein
Assay: cellular SMN ELISA (SMN protein elevation) in myoblast cell line from SMNdelta7 mouse model
Assay type: cell-based
Conditions: Biological Example 1, SMN ELISA, SMNdelta7 mouse myoblasts, 24 hours compound treatment; for EC50: read-out: SMN Activity (EC50)
Method: A cellular SMN ELISA was used to measure the effects of low molecular weight compounds on SMN protein elevation. Cells from a myoblast cell line derived from the SMNdelta7 mouse model (kind gift from Steve Burden, NYU) were seeded into a 384-well plate at a density of 3000 cells/well and treated with compounds for 24 hours. ELISA capture plates were prepared by coating 384-well plates (Immulon 4HBX) with 0.5 ug/mL of anti-SMN mAb (BD Science, Catalog number 610647) at 4° C. overnight. The plates were washed 5 times with 110 uL of PBS-Tween (0.05% Tween-20, PBST), blocked with 100 uL of 1% BSA in PBST for 2 hours and washed (5 times) with 100 uL of PBST. After 24 hours of compound treatment cells were lysed in a modified RIPA-buffer, on ice for 1 hour. 20 uL of lysate and 20 uL of 1% BSA were then added to the ELISA capture plates and incubated at 4° C. overnight. Plates were washed (5 times) with PBST and then incubated with 1:100 dilution of primary rabbit anti-SMN polyclonal antibody (Santa cruz, Catalog number SC-15320) at room temperature for 1 hour and subsequently washed (5 times) with 110 uL of PBST. This was followed by addition of 1:100 Goat anti-Rabbit IgG-HRP linked (Cell Signaling, Catalog number 7074) secondary antibody for 1 hour. Plates were then washed with PBST and incubated with 40 uL TMB substrate (Cell Signaling, Catalog number 7004 L) at room temperature for 1-10 minutes with shaking. The reaction was stopped by addition of 40 uL of stop solution (Cell signaling, Catalog number 7002 L) and absorption was measured at 450 nm. Data was reported as fold activation over DMSO control, and EC50.
ELISA assay condition 1: compound concentration range 20 nM-10 uM; ELISA assay condition 2: compound concentration 100 pM-10 uM. Data generated in Biological Example 1 using ELISA conditions 1 or 2.

Structure (SMILES)	SMN Activity (fold activation over DMSO control) [fold]	EC50 [nM]
Cc1cc(C2CCOCC2)c2cc(-c3ccc(N(C)C4CC(C)(C)NC(C)(C)C4)nn3)c(O)cc2n1 [Example 20-5, 2-methyl-6-(6-(methyl(2,2,6,6-tetramethylpiperidin-4-yl)amino)pyridazin-3-yl)-4-(tetrahydro-2H-pyran-4-yl)quinolin-7-ol]	2.69	286
Cc1cc(C2COC2)c2cc(-c3ccc(N(C)C4CC(C)(C)NC(C)(C)C4)nn3)c(O)cc2n1 [Example 20-6, 2-methyl-6-(6-(methyl(2,2,6,6-tetramethylpiperidin-4-yl)amino)pyridazin-3-yl)-4-(oxetan-3-yl)quinolin-7-ol]	3.18	165
CN(C)c1ccnc2cc(O)c(-c3ccc(N(C)C4CC(C)(C)NC(C)(C)C4)nn3)cc12 [Example 21-1, 4-(dimethylamino)-6-(6-(methyl(2,2,6,6-tetramethylpiperidin-4-yl)amino)pyridazin-3-yl)quinolin-7-ol]	3.01	60
CN(c1ccc(-c2cc3c(=O)nc[nH]c3cc2O)nn1)C1CC(C)(C)NC(C)(C)C1 [Example 22-1, 7-hydroxy-6-(6-(methyl(2,2,6,6-tetramethylpiperidin-4-yl)amino)pyridazin-3-yl)quinazolin-4(1H)-one]	2.58	110
CN(c1ccc(-c2cc3cncnc3cc2O)nn1)C1CC(C)(C)NC(C)(C)C1 [Example 23-1, 6-(6-(methyl(2,2,6,6-tetramethylpiperidin-4-yl)amino)pyridazin-3-yl)quinazolin-7-ol]	3.6	41
CN1C(=O)CCc2cc(-c3ccc(N(C)C4CC(C)(C)NC(C)(C)C4)nn3)c(O)cc21 [Example 24-1, 7-hydroxy-1-methyl-6-(6-(methyl(2,2,6,6-tetramethylpiperidin-4-yl)amino)pyridazin-3-yl)-3,4-dihydroquinolin-2(1H)-one]	1.74	71
CN(c1ccc(-c2cc3ccnc(C#N)c3cc2O)nn1)C1CC(C)(C)NC(C)(C)C1 [Example 26-1, 7-hydroxy-6-(6-(methyl(2,2,6,6-tetramethylpiperidin-4-yl)amino)pyridazin-3-yl)isoquinoline-1-carbonitrile]	2.58	16
CN(c1ccc(-c2cc3ccc(C#N)nc3cc2O)nn1)C1CC(C)(C)NC(C)(C)C1 [Example 26-2, 7-hydroxy-6-(6-(methyl(2,2,6,6-tetramethylpiperidin-4-yl)amino)pyridazin-3-yl)quinoline-2-carbonitrile]	3.14	7
CN(c1ccc(-c2cc3nc(C#N)ccc3cc2O)nn1)C1CC(C)(C)NC(C)(C)C1 [Example 26-3, 6-hydroxy-7-(6-(methyl(2,2,6,6-tetramethylpiperidin-4-yl)amino)pyridazin-3-yl)quinoline-2-carbonitrile]	3.47	6
CN(c1ccc(-c2cc3c(C(N)=O)nccc3cc2O)nn1)C1CC(C)(C)NC(C)(C)C1 [Example 26-4, 6-hydroxy-7-(6-(methyl(2,2,6,6-tetramethylpiperidin-4-yl)amino)pyridazin-3-yl)isoquinoline-1-carboxamide]	2.57	7
CN(c1ccc(-c2cc3ccc(C(N)=O)nc3cc2O)nn1)C1CC(C)(C)NC(C)(C)C1 [Example 26-5, 7-hydroxy-6-(6-(methyl(2,2,6,6-tetramethylpiperidin-4-yl)amino)pyridazin-3-yl)quinoline-2-carboxamide]	2.16	1
CN(c1ccc(-c2cc3nc(C(N)=O)ccc3cc2O)nn1)C1CC(C)(C)NC(C)(C)C1 [Example 26-6, 6-hydroxy-7-(6-(methyl(2,2,6,6-tetramethylpiperidin-4-yl)amino)pyridazin-3-yl)quinoline-2-carboxamide]	2.6	7
COC(=O)c1ccc2cc(O)c(-c3ccc(N(C)C4CC(C)(C)NC(C)(C)C4)nn3)cc2n1 [Example 26-7, methyl 6-hydroxy-7-(6-(methyl(2,2,6,6-tetramethylpiperidin-4-yl)amino)pyridazin-3-yl)quinoline-2-carboxylate]	2.64	17
N#Cc1ccc2cc(O)c(-c3ccc(N4CCNCC4)nn3)cc2n1 [Example 27-1, 6-hydroxy-7-(6-(piperazin-1-yl)pyridazin-3-yl)quinoline-2-carbonitrile]	2.49	46
N#Cc1ccc2cc(-c3ccc(N4CCNCC4)nn3)c(O)cc2n1 [Example 27-2, 7-hydroxy-6-(6-(piperazin-1-yl)pyridazin-3-yl)quinoline-2-carbonitrile]	2.42	395
Oc1cc2ccncc2cc1-c1ccc(N2CCNCC2)nn1 [Example 27-3, 7-(6-(piperazin-1-yl)pyridazin-3-yl)isoquinolin-6-ol]	2.74	199
Oc1cc2cccnc2cc1-c1ccc(C2=CCNCC2)nn1 [Example 28-1, 7-(6-(1,2,3,6-tetrahydropyridin-4-yl)pyridazin-3-yl)quinolin-6-ol]	1.9	155
Cc1nccc2cc(-c3ccc(N(C)C4CC(C)(C)NC(C)(C)C4)nn3)c(O)cc12 [Example 29-1, 1-methyl-6-(6-(methyl(2,2,6,6-tetramethylpiperidin-4-yl)amino)pyridazin-3-yl)isoquinolin-7-ol]	2.96	14
Cc1nccc2cc(O)c(-c3ccc(N(C)C4CC(C)(C)NC(C)(C)C4)nn3)cc12 [Example 29-2, 1-methyl-7-(6-(methyl(2,2,6,6-tetramethylpiperidin-4-yl)amino)pyridazin-3-yl)isoquinolin-6-ol]	2.53	9
CN(c1ccc(-c2cc3c(=O)n(C)ccc3cc2O)nn1)C1CC(C)(C)NC(C)(C)C1 [Example 35-1, 6-hydroxy-2-methyl-7-(6-(methyl(2,2,6,6-tetramethylpiperidin-4-yl)amino)pyridazin-3-yl)isoquinolin-1(2H)-one]	2.43	3
CCOc1nccc2cc(O)c(-c3ccc(N(C)C4CC(C)(C)NC(C)(C)C4)nn3)cc12 [Example 35-3, 1-ethoxy-7-(6-(methyl(2,2,6,6-tetramethylpiperidin-4-yl)amino)pyridazin-3-yl)isoquinolin-6-ol]	2.26	13
CC1(C)CC(Oc2ccc(-c3cc4c(O)nccc4cc3O)nn2)CC(C)(C)N1 [Example 35-4, 7-(6-((2,2,6,6-tetramethylpiperidin-4-yl)oxy)pyridazin-3-yl)isoquinoline-1,6-diol]	3.26	96
CN(c1ccc(-c2cc3cnc(-c4ccccc4)cc3cc2O)nn1)C1CC(C)(C)NC(C)(C)C1 [Example 36-1, 7-(6-(methyl(2,2,6,6-tetramethyl-piperidin-4-yl)amino)-pyridazin-3-yl)-3-phenylisoquinolin-6-ol]	2.32	282
Cc1cc2cc(O)c(-c3ccc(N(C)C4CC(C)(C)NC(C)(C)C4)nn3)cc2cn1 [Example 36-2, 3-methyl-7-(6-(methyl(2,2,6,6-tetramethylpiperidin-4-yl)amino)-pyridazin-3-yl)isoquinolin-6-ol]	2.64	9
Cc1cc2cc(O)c(-c3ccc(N4CCNCC4)nn3)cc2cn1 [Example 37-1, 3-methyl-7-(6-(piperazin-1-yl)pyridazin-3-yl)isoquinolin-6-ol]	2.33	124
Cc1cc(Cl)c2cc(-c3ccc(N(C)C4CC(C)(C)NC(C)(C)C4)nn3)c(O)cc2n1 [Preparation 11, 4-chloro-2-methyl-6-(6-(methyl(2,2,6,6-tetramethylpiperidin-4-yl)amino)pyridazin-3-yl)quinolin-7-ol]	2.6	280
CN(c1ccc(-c2cc3c(Cl)ccnc3cc2O)nn1)C1CC(C)(C)NC(C)(C)C1 [Preparation 12, 4-chloro-6-(6-(methyl(2,2,6,6-tetramethylpiperidin-4-yl)amino)pyridazin-3-yl)quinolin-7-ol]	2.6	30
